Experiments:
[1] = Potentiometric titration of the free ligand (protonation constants); assay type: physicochemical
Method: As far as the ligand behavior in aqueous solutions is concerned, the speciation curves were obtained from the titration of an L-CH3 solution (0.1 mM in DMSO 5% (v/v)/H2O (HCl/KCl); initial pH = 2.7) by stepwise addition of NaOH 0.1 M. The distribution curves and the acid association constants were then calculated (Figure 1 and Table 1).
At low pH, L-CH3 has seven protic groups that can be deprotonated upon pH increase: besides the phenolic OH, two tertiary amines and four pyridines. From the titration, six logKa could be successfully obtained. The highest one, logKa = 9.75, is related to the phenolic group. The next constants are ascribed to the nitrogens of the tertiary amines and of the Pyr groups, although they are difficult to unambiguously correlate with a specific functional group. […] The potentiometric titration was carried out till pH 9.5 to avoid the precipitation of the ligand in the basic environment.
Potentiometric measurements were carried out using the Metrohm pH-meter system (Herisau, Switzerland) with a Metrohm semi-micro combination electrode at 25 °C, calibrated in a hydrogen ion concentration using HCl. The ligands were dissolved in DMSO (5% v/v/H2O (HCl/KCl)) in order to obtain a concentration of 1 mM. The titrant (KOH 0.1M) was added with a micrometric syringe at 298 K in the pH range of 2.5–11.5 in an argon atmosphere. The stability constants and stoichiometry of the complexes were calculated using the titration curves and the SUPERQUAD and HYPERQUAD [47, 48].

[2] = UV–Vis titration of HL-CH3 with Fe(ClO4)2, binding constant; conditions: Fe(II); 0.1 mM ligand, 5% v/v MeOH/BBS 50 mM, pH 7.4
Method: (§1) To evaluate the selectivity of these ligands towards copper, the same titrations were performed with different metal salts: Fe(ClO4)2, Mn(ClO4)2, and Zn(ClO4)2, monitoring the methyl-substituted ligand (Figures S39–S41). These metal ions were chosen because they are also divalent and common in biological matrixes.
(§2) For the determination of the binding constant between metals and ligands, a solution of the latter was titrated with 0.2 eq of metal for each addition. The titrating solutions were 10 mM and 100 μM for Cu(ClO4)2 versus 0.1 mM and 1 μM for the ligands in 5% v/v MeOH/BBS (50 mM, pH 7.4), respectively. […] The absorbance variation was monitored from 200 nm to 800 nm at 25 °C. […]
(§3) UV-vis spectra of ligands and complexes were recorded in a quartz cuvette, with 1 cm of optical path. […]
(§4) The titrating solutions were 10 mM and 100 μM for Cu(ClO4)2 versus 0.1 mM and 1 μM for the ligands in 5% v/v MeOH/BBS (50 mM, pH 7.4), respectively. […] The absorbance variation was monitored from 200 nm to 800 nm with a Varian Cary 50 instrument, thermostated at 25 °C.
(§5) The binding constants were then determined by nonlinear regression analysis of the plot “ΔAbs/b vs Cu(II) concentration” (Equation 7 ), according to K. Connors, The Measurement of Molecular Complex Stability, Madison, Wisconsin, Wiley, 1987[5]. […]
(§6) ΔA: absorbance at a certain wavelength. […]

[3] = UV–Vis titration of HL-CH3 with Zn(ClO4)2, binding constant; conditions: Zn(II); 0.1 mM ligand, 5% v/v MeOH/BBS 50 mM, pH 7.4
Method: as §1, §2, §3, §4, §5, §6

[4] = overall protonation constant, DMSO 5% (v/v)/H2O (HCl/KCl), 25 °C

In the case of Cc1cc(CN(Cc2ccccn2)Cc2ccccn2)c(O)c(CN(Cc2ccccn2)Cc2ccccn2)c1 [HL-CH3, 2,6-bis[(bis(2-pyridylmethyl)amino)methyl]-4-methylphenol], the “logβi, L^− + 2H^+ ⇌ [H2L]^+” value [1, 4] is reported as 16.57 ± 0.01, the “logβi, L^− + 3H^+ ⇌ [H3L]^2+” value [1, 4] is reported as 21.56 ± 0.01 and the “logβi, L^− + 4H^+ ⇌ [H4L]^3+” value [1, 4] is reported as 25.27 ± 0.01. The “logβi, L^− + 5H^+ ⇌ [H5L]^4+” value [1, 4] was 27.83 ± 0.02, the “logβi, L^− + 6H^+ ⇌ [H6L]^5+” value [1, 4] was 29.60 ± 0.11 and the “logβi, L^− + H^+ ⇌ HL” value [1, 4] was 9.75 ± 0.01. For the same compound, the “logKa, HL + H^+ ⇌ [H2L]^+” value ([1]; stepwise constant) was 6.82, the “logKa, [H2L]^+ + H^+ ⇌ [H3L]^2+” value ([1]; stepwise constant) was 4.99 and the “logKa, [H3L]^2+ + H^+ ⇌ [H4L]^3+” value ([1]; stepwise constant) was 3.71. For the same compound, the “logKa, [H4L]^3+ + H^+ ⇌ [H5L]^4+” value ([1]; stepwise constant) was 2.56, the “logKa, [H5L]^4+ + H^+ ⇌ [H6L]^5+” value ([1]; stepwise constant) was 1.77 and the “logKa, L + H^+ ⇌ HL” value ([1]; stepwise constant, phenolic group) was 9.75. For the same compound, the Kbind [2] was 1.09 × 10^8 M^−2, the “log(Kbind)” value [2] was 8.03 and the Kbind [3] was 2.49 × 10^8 M^−2. The “log(Kbind)” value [3] was 8.39.

From paper PMC11643690, “Chelating Properties of N6O-Donors Toward Cu(II) Ions: Speciation in Aqueous Environments and Catalytic Activity of the Dinuclear Complexes” (Molecules, 2024)
